Where “and” joins values, the source holds several entries; their conditions need not be identical. Equal entries are not always repeated.
Test system: influenza viruses
Design: species or system human (pediatric influenza patients)
Conditions: human, in vivo

| Compound | Virus isolation rate from specimens |
| --- | --- |
| CCOC(=O)C1=C[C@@H](OC(CC)CC)[C@H](NC(C)=O)[C@@H](N)C1 [oseltamivir] | 68% and 69% |
| CC(=O)N[C@H]1[C@H]([C@H](O)[C@H](O)CO)OC(C(=O)O)=C[C@@H]1N=C(N)N [zanamivir] | 50% and 39% |

Source: PMC3062105 (Clinical infectious diseases : an official publication of …, 2011)
